Data: patent publication US8987449B2, “Medicine for treating ischemic brain injury and its sequelae, and preparation method thereof” (Haimin Lei, priority 2011, dated 2015)

Columns and labels:
MCAO rats = experiment: Neurological symptoms of MCAO rats (Zea Longa 5 grades); assay type: in vivo, rat; conditions: 0-4 points; for neurological symptoms evaluation (3 d): model group 1.74 ± 0.73; for neurological symptoms evaluation (7 d): model group 1.61 ± 0.96
Protocol: 140 healthy SD male rats, weighing 280-300 g, provided by Beijing Vital River Laboratories, certificate No.: SCXK (Jing) 2002-2003.
Tetramethylpyrazine (TMP), vanillic acid, LQC-T4 (self made), the purity ≧98%, determined using high performance liquid chromatography (HPLC), which met the requirement of experiment, the powder being carefully sealed and preserved at 4° C., and imodipine (ShanDong XinHua Pharmaceutical CO., Ltd, batch No.: 0908164).
The method of [Koizumi J, Yoshida Y, Nakazawa T, Ooneda G. Experimental studies of ischemia brain edema, I: A new experimental model of cerebral embolism in rats in which recirculation can be introduced in the ischemic area[J]. Jpn J Stroke, 1986, 8:1-8] was referred to in order to establish the MCAO model. After the rats were anesthetized and the skin thereof was disinfected by ethanol. By cutting right in the middle of the neck, the right common carotid artery, internal carotid artery and external carotid artery were separated and the common carotid artery and external carotid artery were ligated. The internal carotid artery was clamped with a bulldog clamp. A cut was made at the crotch of the external carotid artery and the internal carotid artery followed by releasing the bulldog clamp. The nylon wire was inserted into the cut with the deep of about a little longer than 18 mm to achieve the cerebral ischemia caused by cerebral artery occlusion. Next, the external carotid artery was ligated and the nylon wire was fixed. In sham operation group, the right common carotid artery, the external carotid artery and the internal carotid artery were only exposed and separated. The rats were routinely raised in different cages. 0.5 ml penicillin was continuously injected into every mouse for three days after the surgery.
The evaluating standard of the neurological symptoms of MCAO rats were carried out according to the Zea Longa 5 grades evaluating method, that is, the rats were evaluated when they were conscious after 6 h after the surgery: no apparent neurological symptom, 0 point; not being able to completely stretch the left front claw, 1 point; whirling leftward, 2 point; leaning leftward when walking, 3 point; having an epileptic seizure, losing consciousness and not being able to walk independently, as 4 point. The rats getting 1-3 point were selected for the subsequent experiment. The MCAO rats having the same point were distributed randomly and averagely to each experimental group.
There were sham operation group, model group, Nimodipine group, LQC-T 4 large dosage group, LQC-T4 small dosage group, TMP group and TMP+Vanillic acid group. 0.5% CMC-Na (1 ml·100 g^−1) was administrated intragastrically to the blank group and model group, two dosage groups of 120 mg·kg^−1 and 60 mg·kg^−1 were intragastrically administrated to the LQC-T4(1 ml·100 g^−1) group, and 74 mg·kg^−1 TMP+46 mg·kg^−1 vanillitc acid (1 ml·100 g^−1) were intragastrically administrated, once a day continuously for 10 days.
The SPSS 11.0 software pack was used to carry out the statistical analysis of all the data. The comparison of the enumeration data was carried out with X^2 test P<0.05 had statistical meaning.

[1] = tested on: rat primary cortical neurons; experiment: Proliferation of primary neuronal cells by MTT and morphology observation; assay type: cell-based; conditions: for MTT(A540), 24 h after the administration: normal neurons, control 0.7567 ± 0.1109
Protocol: SD pregnant rats: pregnant for 16-18 d, certificate number: SCXK (Jing) 2006-0009, provided by BeiJing Vital River Laboratories.
LQC-T4 (prepared by the method of example 5), the purity was ≧98%, determined by high performance liquid chromatography (HPLC), which met the requirement of the experiment. The powder was carefully sealed and preserved at 4° C. The prepared LQC-T4 was dissolved using dimethyl sulfoxide and made into […] storing liquid for use.
Referring to the document [HongQingtao, TangYipeng, Neurons of cerebral cortex of newborn rats in in vitro primary culture, Chinese Journal of Neuroanatomy, 1994, 10(3):259-262], the pregnant 16-18 d SD rat was executed by dislocation. The fetal rat was taken out in an aseptic environment, the meninges and blood steak were stripped, the cortex was separated and cut into 1 mm^3 tissue block (all carried out on ice). The tissue block was digested at 37[…] with 0.1% pancreatic enzyme-0.02% EDTA for 20 min. Digesting was stopped using DMEM containing fetal calf serum and the number of the cells was adjusted to 5×10^5 cells ml^−1. The resultant cells were inoculated into a 96 well plate treated by 0.001% polylysine and the plate was put in a 37° C. 5% CO2 incubation box to be cultured. The cultivation liquid was changed (totally) after 48 h and add adenine arabinoside was added (final concentration is 5 μM) to inhibit the excessive proliferation of non-neurons. The cultivation liquid was changed after 48 h with fresh cultivation liquid and culture was continued. And the cultivation liquid was changed every 3 days afterward.
The cultivation liquid was sucked away on the eighth day of neuron culture. DMEM culture-medium containing 0.15% DMSO was added to the blank group, while 60 μM, 30 μM, 15 μM LQC-T4, 60 μM tetramethylpyrazine and 60 μM vanillic acid were respectively added to the administration group. Ten parallel wells were set as a group. And they were put into a 37° C., 5% CO2 incubation box to continue culturing for 24 h.
5 mg/ml MTT 20 μl was added to each well at the time of 4 h before the experiment ended and the cultivation liquid was sucked away. DMSO 200 μl was added to each well. When the purple particles were completely dissolved, the enzyme-linked immune assay was used to measure the optical density at 540 nm.
The SAS 8.2 statistical software was used to carry out the one-way ANOVA variance analysis and the difference among the groups were compared by t-test.

VEGF = VEGF expression in the cortex infarction zone (immunohistochemistry SP two-step method); assay type: in vivo, rat; conditions: MCAO rats, vs model group
[2] = tested on: rat cortex neurons after cerebral ischemia; experiment: Brain histopathologic morphology after cerebral ischemia (HE staining of cortex); assay type: in vivo; conditions: MCAO rats, compared with model group
Protocol: The same as effect example 4
10% chloral hydrate (0.35 g/kg) was injected into the abdominal cavity of a rat to anesthetize thereof. The thoracic cavity was cut to expose the heart fully. It was intubated through left ventricle. Firstly, it was washed with 37[…] saline solution 300 ml and perfused with pre-cooled 4% paraformaldehyde phosphate buffer solution (pH 7.2). When the rat was adequately fixed and the body was stiff, the head was cut and the brain was taken rapidly. And the brain was dipped into 4% paraformaldehyde solution and fixed for 24 h. Next, it was put into tissue vacuum hydroextractor, was dehydrated with gradient ethanol, made transparent with xylene, and imbedded into paraffin. 3-5 examples were taken for each group. And then 3 mm-4 mm tissue block from chiasma opticum towards caudal end at coronal position was taken, wherein the thickness of brain slice was 3 μm.
The rat cortex damage after cerebral ischemia and the effect of the medicine were observed through HE staining.

[3] = 60 mg/kg intragastrically once a day
[4] = 120 mg/kg intragastrically once a day

Structure (SMILES) | neurological symptoms evaluation (3 d) (MCAO rats; 37 mg/kg once a day) | neurological symptoms evaluation (7 d) (MCAO rats; 37 mg/kg once a day) | MTT(A540), 24 h after the administration ([1]; 60 μM) | VEGF expression in the rat cerebral infarction zone (VEGF; TMP group) | remaining of the complete neuron of the rat cortex after cerebral ischemia (HE staining) ([2]; TMP group) | neurological symptoms evaluation (3 d) (MCAO rats; 30 mg/kg once a day) | neurological symptoms evaluation (7 d) (MCAO rats; 30 mg/kg once a day) | neurological symptoms evaluation (3 d) (MCAO rats; [3]) | neurological symptoms evaluation (7 d) (MCAO rats; [3]) | neurological symptoms evaluation (3 d) (MCAO rats; [4]) | neurological symptoms evaluation (7 d) (MCAO rats; [4]) | MTT(A540), 24 h after the administration ([1]; 15 μM) | MTT(A540), 24 h after the administration ([1]; 30 μM) | promoting effect on the growth of normal neurons ([1]; 24 h after the administration, P>0.05, result in words) | morphology observation of primary neuronal cells ([1]; phase contrast microscope, vs normal group) | VEGF expression in the rat cerebral infarction zone (VEGF; 60 mg/kg small dosage group) | VEGF expression in the rat cerebral infarction zone (VEGF; 120 mg/kg large dosage group) | remaining of the complete neuron of the rat cortex after cerebral ischemia (HE staining) ([2]; 60 mg/kg) | remaining of the complete neuron of the rat cortex after cerebral ischemia (HE staining) ([2]; 120 mg/kg)
Cc1nc(C)c(C)nc1C [TMP, tetramethylpyrazine, reference compound] | 1.36 ± 0.50 | 1.67 ± 0.78 | 0.8710 ± 0.1350 | more than that of the model group | a lower level of damage compared with the model group |  |  |  |  |  |  |  |  |  |  |  |  |  | 
COCCOC(=O)C1=C(C)NC(C)=C(C(=O)OC(C)C)C1c1cccc([N+](=O)[O-])c1 (centres unmarked) [Nimodipine, reference compound] |  |  |  |  |  | 1.35 ± 0.49 | 1.11 ± 0.48 |  |  |  |  |  |  |  |  |  |  |  | 
COc1cc(C(=O)OCc2nc(C)c(C)nc2C)ccc1OCc1nc(C)c(C)nc1C [LQC-T4, (3,5,6-trimethylpyrazine-2-yl)methyl 3-methoxy-4-((3,5,6-trimethylpyrazine-2-yl)methoxy) benzoate] |  |  | 0.8106 ± 0.2415 |  |  |  |  | 1.40 ± 0.51 | 1.26 ± 0.35 | 1.29 ± 0.47 | 1.60 ± 0.74 | 0.9175 ± 0.2300 | 0.9114 ± 0.1599 | greater than that of the tetramethylpyrazine group and the vanillic acid group | more prosperous in growth and their protrusions formed a network | more than that of the model group | more than that of the model group | a larger amount of neurons which were distinct and complete in structure | a larger amount of neurons which were distinct and complete in structure
